In BindingDB's records for patent US20240043470 (Cornell University, 2024):

Assays:
[1] = target: T1, Proteasome subunit beta type-5 (Homo sapiens, UniProt P28074); assay: IC50 Determination
T1 sequence (P28074 whole entry): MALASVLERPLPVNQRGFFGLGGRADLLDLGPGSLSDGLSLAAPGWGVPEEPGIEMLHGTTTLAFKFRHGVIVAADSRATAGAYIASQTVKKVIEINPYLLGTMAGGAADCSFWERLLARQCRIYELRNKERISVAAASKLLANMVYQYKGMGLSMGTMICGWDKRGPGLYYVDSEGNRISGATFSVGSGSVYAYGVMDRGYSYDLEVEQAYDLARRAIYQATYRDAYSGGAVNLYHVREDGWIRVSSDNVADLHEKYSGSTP

[2] = target: T2, Proteasome subunit beta type-8 (Homo sapiens, UniProt P28062); assay: IC50 Determination
T2 sequence (P28062 whole entry): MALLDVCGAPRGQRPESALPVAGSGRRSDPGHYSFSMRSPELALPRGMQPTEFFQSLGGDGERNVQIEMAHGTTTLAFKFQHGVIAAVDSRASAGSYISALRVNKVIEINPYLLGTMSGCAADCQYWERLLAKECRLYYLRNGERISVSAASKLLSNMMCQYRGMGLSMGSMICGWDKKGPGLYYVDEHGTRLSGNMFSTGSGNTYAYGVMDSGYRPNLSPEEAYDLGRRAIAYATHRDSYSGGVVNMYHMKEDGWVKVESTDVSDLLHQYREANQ

Row | Compound | IC50 [1] [µM] | IC50 [2] [µM]
1 | CC(=O)N[C@H]1CCCCOc2cccc(c2)C[C@@H](C(=O)NCC(F)(F)F)NC(=O)[C@H](CCc2ccccc2)NC1=O [US20240043470, Compound 3-03] | 11.9 | –
2 | O=C1CCc2cccc(c2)OCCCC[C@@H](C(=O)NCc2ccccc2F)NC(=O)[C@H](CC(=O)N2CCC[C@@H]2c2ccccc2)N1 [US20240043470, Compound 3-18] | 44.3 | 3
3 | CC(=O)N[C@H]1Cc2cccc(c2)Oc2ccc(cc2)C[C@@H](C(=O)NCc2ccccc2F)NC(=O)[C@H](CC(=O)N2CCC[C@@H]2c2ccccc2)NC1=O [US20240043470, Compound 2-04] | 30.7 | 9.1
4 | O=C1N[C@@H](CC(=O)N2CCCC2)C(=O)N[C@H](C(=O)NCc2cccc3ccccc23)CCCCCCCCC[C@H]1Cc1ccccc1 [US20240043470, Compound 4-03] | – | 3.52
5 | O=C(N[C@H]1Cc2cccc(c2)Oc2ccc(cc2)C[C@@H](C(=O)NCc2ccccc2F)NC(=O)[C@H](CC(=O)N2CCC[C@@H]2c2ccccc2)NC1=O)c1ccccc1 [US20240043470, Compound 2-06] | – | 19.3
6 | CC(=O)NC1Cc2cccc(c2)Oc2ccc(cc2)CC(C(=O)NCc2ccccc2F)NC(=O)C(CC(=O)N2CCC[C@@H]2c2ccccc2)NC1=O (stereo partly specified) [US20240043470, Compound 2-05] | 88.4 | 35.9
7 | O=C(NC1Cc2cccc(c2)Oc2ccc(cc2)CC(C(=O)NCc2ccccc2F)NC(=O)C(CC(=O)N2CCC[C@@H]2c2ccccc2)NC1=O)c1ccccc1 (stereo partly specified) [US20240043470, Compound 2-07] | > 100 | 26.8
